Experimental data as given in patent publication US10010572B2, “Composition for musculoskeletal pain” (priority 2015, dated 2018).

Tested on: chronic musculoskeletal pain
Test: Randomized, double-blind, placebo-controlled clinical study of topical analgesics (St. Lucia), Subjective Pain Intensity Rating (SPIR)
Description: Chronic musculoskeletal pain is relatively common in all age groups and may be the result of work-related trauma, sports-related injuries, postural events, various traumas and the natural aging process. Pharmaceutical agents including non-steroidal anti-inflammatory drugs acetaminophen, opioids and other drugs are frequently used to treat such patients. Because of the potential adverse effects associated with most of these drugs, one embodiment of the present invention, a topical analgesic, with coconut oil as a base ingredient and other natural oils, was clinically tested to determine its efficacy in the management of chronic musculoskeletal pain.
One hundred ninety six (196) patients were enrolled in the study. The patients were randomized to the 3 groups using the nQuery Advisor version 7.0 software protocol.
After obtaining permission from the Committee for the Protection of Human Subjects attached to the St. Lucia Pain Institute, the Ministry of Health in St. Lucia and the St. Lucia Medical and Dental Association Ethics Committee, a randomized, double-blind, placebo-controlled study was designed and implemented in the Caribbean island of St. Lucia. St. Lucia was chosen as the study site for a number of reasons: that population is relatively opioid-naive; chronic musculoskeletal pain is quite common, and most patients tend to use and in some cases, prefer to use topical analgesics for musculoskeletal pain management instead of oral or other parenteral medications. Moreover, the Principal Investigator (inventor of the present invention) lives in St. Lucia for part of the year. One hundred and ninety-six (196) patients were enrolled in the study and were subsequently randomized to a pre-determined computerized protocol. […] The Diclofenac ointment was dispensed in a label-less tube.
All patients were initially evaluated by the Principal Investigator and another investigator after triage screening by the Study Coordinator. At that screening, the patients were assessed using the inclusionary and exclusionary criteria. […] Patients were recruited via television, radio and newspaper announcements, and interviews announcing the study. […] This study was supported and funded by three St. Lucian Financial Institutions.
Subjective Pain Intensity Rating (SPIR) was determined on each patient using a scale of 0 (no pain) to 10 (the maximum possible pain, e.g. immersion of the hand in boiling water). That raw score was multiplied by 10 to obtain a percentage score. […] After successful enrollment, patients were randomized to one of the 3 groups. Patients were dispensed with 5 ounces of one of the 3 medications and were instructed to apply the medication twice daily for 2 weeks.
All patients were contacted by the Study Coordinator after 2 weeks and pain score (as described above), satisfaction with the drug, satisfaction with the overall study and the presence of adverse effects were determined. Then, 2 weeks later (4 weeks after study commencement), patients were asked to return to the study office (St. Lucia Pain Institute office) for follow-up clinical evaluation and determination of pain score, adverse effects and related data similar to what was obtained at 2 weeks.

patients who developed superficial skin rashes (receded without therapy when the drug was discontinued): Four
Structure (SMILES): O=C(O)Cc1ccccc1Nc1c(Cl)cccc1Cl [Diclofenac]
Median pain score at 3 months (100 point scale, 3 month post-study telephone interview): 25%
Median change in pain from baseline to 3 months (decrease) (100 point scale, decrease, not statistically significant among groups): 30%
patients with progressive radicular pain and paresthesiae (major adverse effect) (after 5 days, subsided on discontinuation, reappeared on re-introduction, study discontinued in that patient after 8 days): One
change in SPIR pain score from baseline to 2 weeks (patients with chronic axial musculoskeletal pain, topical twice daily, baseline to 2 weeks, all p<0.0001): corresponding decreases in pain scores
change in SPIR pain score from baseline to 4 weeks (patients with chronic axial musculoskeletal pain, topical twice daily, baseline to 4 weeks, all p<0.0001): corresponding decreases in pain scores
